# Reference: PubChem BioAssay AID2060622 (Molecular Pharmacology Branch, DTP, NCI, 2025)
# Tested on: 242566-281-R-J2-PDC complex spheroid viability
# Test: Anticancer human tumor 242566-281-R-J2-PDC patient-derived pancreatic carcinoma cell line growth inhibition [CLK]
# Conditions: for IC50: curve of first compound; for viability, T/C: stronger effect = lower value
# Summary of the method: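 Multi-cell-type spheroids combined patient-derived tumor cells with HUVEC endothelial cells and human mesenchymal stem cells. Paired agents were dosed in half-log steps down from about clinical Cmax, or from 10 microM where Cmax was unknown.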
# 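Note: spheroids exposed to compounds for 7 days before readout.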
# 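Throughout, for viability, T/C: 100% = DMSO vehicle control wells.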
structure (smiles),measurement,setting,value
CC1(C)CCC(CN2CCN(c3ccc(C(=O)NS(=O)(=O)c4ccc(NCC5CCOCC5)c([N+](=O)[O-])c4)c(Oc4cnc5[nH]ccc5c4)c3)CC2)=C(c2ccc(Cl)cc2)C1 + CN1CCN(c2cc(C(=O)Nc3cc4cc(-c5cnn(C)c5)ccc4cn3)ccn2)CC1,IC50,second compound 0.0316 µM,6.54 µM
same,IC50,second compound 0.1 µM,6.08 µM
same,IC50,second compound 0.316 µM,< 0.0316 µM
same,IC50,second compound 1 µM,< 0.0316 µM
same,IC50,second compound 3.16 µM,< 0.0316 µM
same,IC50,second compound 10 µM,< 0.0316 µM
same,"viability, T/C","second compound 0.0316 µM, first compound 0.0316 µM",109%
same,"viability, T/C","second compound 0.0316 µM, first compound 0.1 µM",109%
same,"viability, T/C","second compound 0.0316 µM, first compound 0.316 µM",101%
same,"viability, T/C","second compound 0.0316 µM, first compound 1 µM",112%
same,"viability, T/C","second compound 0.0316 µM, first compound 3.16 µM",109%
same,"viability, T/C","second compound 0.0316 µM, first compound 10 µM",16.1%
same,"viability, T/C","second compound 0.1 µM, first compound 0.0316 µM",100%
same,"viability, T/C","second compound 0.1 µM, first compound 0.1 µM",92.8%
same,"viability, T/C","second compound 0.1 µM, first compound 0.316 µM",93.2%
same,"viability, T/C","second compound 0.1 µM, first compound 1 µM",96.9%
same,"viability, T/C","second compound 0.1 µM, first compound 3.16 µM",107%
same,"viability, T/C","second compound 0.1 µM, first compound 10 µM",13.4%
same,"viability, T/C","second compound 0.316 µM, first compound 0.0316 µM",38.1%
same,"viability, T/C","second compound 0.316 µM, first compound 0.1 µM",34%
same,"viability, T/C","second compound 0.316 µM, first compound 0.316 µM",31.9%
same,"viability, T/C","second compound 0.316 µM, first compound 1 µM",38.9%
same,"viability, T/C","second compound 0.316 µM, first compound 3.16 µM",36.2%
same,"viability, T/C","second compound 0.316 µM, first compound 10 µM",5.57%
same,"viability, T/C","second compound 1 µM, first compound 0.0316 µM",5.27%
same,"viability, T/C","second compound 1 µM, first compound 0.1 µM",5.79%
same,"viability, T/C","second compound 1 µM, first compound 0.316 µM",6.15%
same,"viability, T/C","second compound 1 µM, first compound 1 µM",6.22%
same,"viability, T/C","second compound 1 µM, first compound 3.16 µM",5.21%
same,"viability, T/C","second compound 1 µM, first compound 10 µM",1.17%
same,"viability, T/C","second compound 3.16 µM, first compound 0.0316 µM",7.94%
same,"viability, T/C","second compound 3.16 µM, first compound 0.1 µM",7.2%
same,"viability, T/C","second compound 3.16 µM, first compound 0.316 µM",8.15%
same,"viability, T/C","second compound 3.16 µM, first compound 1 µM",7.96%
same,"viability, T/C","second compound 3.16 µM, first compound 3.16 µM",6.33%
same,"viability, T/C","second compound 3.16 µM, first compound 10 µM",1.38%
same,"viability, T/C","second compound 10 µM, first compound 0.0316 µM",2.16%
same,"viability, T/C","second compound 10 µM, first compound 0.1 µM",2.09%
same,"viability, T/C","second compound 10 µM, first compound 0.316 µM",1.92%
same,"viability, T/C","second compound 10 µM, first compound 1 µM",2.08%
same,"viability, T/C","second compound 10 µM, first compound 3.16 µM",1.25%
same,"viability, T/C","second compound 10 µM, first compound 10 µM",0.24%
